The test system of assay [1] is std1 mutant. The experiment in a line: Inhibition of TAG and starch accumulation by LOX inhibitor in std1 mutant under nitrogen starvation. It counts as cell-based, Chlamydomonas reinhardtii. Conditions: 5 mM catechol, after 6-day under nitrogen starvation (FIG. 14). As to the method: FIGS. 14A and 14B depict the inhibition of TAG and starch accumulation in the mutant by LOX inhibitors.
FIG. 14A depicts starch accumulation.
FIG. 14B depicts TAG accumulation.
The starch and chlorophyll contents were measured according to (Chochois et al., 2010). One mL of culture was harvested, centrifuged at ˜20,000 g for 10 min, resuspended in 1 mL of methyl alcohol for chlorophyll extraction and stored at −80° C. The pellets were dried, and 400 μL of water were added. To solubilize starch, the samples were autoclaved setting “dry cycle”. Subsequently, starch was degraded to glucose by adding 200 μL amyloglucosidase solution (1 U/mL, Roche) and incubation at 55° C. for 1-2 h. Using an automated sugar analyzer (Ysi model 2700 select, Yellow Springs, Ohio, USA), glucose concentration were determined. Chlorophyll was extracted by methanol, and chlorophyll a and b were determined by measuring the absorbance at 653, 666 and 750 nm using UV-VIS spectrophotometer (SAFAS UVmc2 with the software SP2000).
C. reinhardtii cells (eq. to 2 mm^3 total cellular volume) were harvested by centrifuge at 1000 g for 2 min (at 4° C.). The cells were either frozen right away under −80° C., or quenched in hot isopropanol for immediate lipid extractions. Total cellular lipids were extracted using a mixture of hexane and isopropanol (Li-Beisson et al., 2010). […]

The test system of assay [2] is WT strains. The experiment in a line: Inhibition of TAG and starch accumulation by LOX inhibitor in WT strains under nitrogen starvation. It is filed as cell-based, Chlamydomonas reinhardtii. Conditions: in response to nitrogen starvation.

The text below walks through data of patent US10513680B2, “Green microalgae lacking a functional DYRKP-1 gene, for use for increased production of feedstock” (COMMISSARIAT A L'ENERGIE ATOMIQUE ET AUX ENERGIES …, priority 2014, dated 2019).

In the case of `Oc1ccccc1O` [catechol], in assay [1], the TAG accumulation result is recorded as “inhibited” and the starch accumulation entry is “inhibited”. In addition, in assay [2], the TAG accumulation result is “inhibited” and the starch accumulation result is recorded as “no effect”.
